# Assay results published in ChEMBL document CHEMBL1201862, “PubChem BioAssay data set” (2004).
#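 Step 1: Grow cells in 96-well plates. Step 2: Expose to compound for 48 hours at 5 concentrations. Step 3: Interpolate endpoints linearly; if unreached, use highest concentration. The concentration for 50% growth inhibition is given as GI50.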 Active and inactive are the calls of the source. No stated cut-off is given here; in the data, active = GI50 up to about 1.1 µM and inactive = higher.
# Key:
# Assay in all cases: inhibition of tumour cell growth, NCI panel, 48 h
# 786-0 = tested on: 786-0
# A498 = tested on: A498
# A549 = tested on: A549
# ACHN = tested on: ACHN
# BT-549 = tested on: BT-549
# CAKI-1 = tested on: CAKI-1
# CCRF-CEM = tested on: CCRF-CEM
# COLO 205 = tested on: COLO 205
# DU-145 = tested on: DU-145
# EKVX = tested on: EKVX
# HCC 2998 = tested on: HCC 2998
# HCT-116 = tested on: HCT-116
# HCT-15 = tested on: HCT-15
# HL-60 = tested on: HL-60
# HOP-62 = tested on: HOP-62
# HOP-92 = tested on: HOP-92
# HT-29 = tested on: HT-29
# Hs-578T = tested on: Hs-578T
# IGROV-1 = tested on: IGROV-1
# K562 = tested on: K562
# KM12 = tested on: KM12
# LOX IMVI = tested on: LOX IMVI
# M14 = tested on: M14
# MCF7 = tested on: MCF7
# MDA-MB-231 = tested on: MDA-MB-231
# MDA-MB-435 = tested on: MDA-MB-435
# MDA-N = tested on: MDA-N
# MOLT-4 = tested on: MOLT-4
# Malme-3M = tested on: Malme-3M
# NCI-H226 = tested on: NCI-H226
# NCI-H23 = tested on: NCI-H23
# NCI-H460 = tested on: NCI-H460
# NCI-H522 = tested on: NCI-H522
# NCI/ADR-RES = tested on: NCI/ADR-RES
# OVCAR-3 = tested on: OVCAR-3
# OVCAR-4 = tested on: OVCAR-4
# OVCAR-5 = tested on: OVCAR-5
# OVCAR-8 = tested on: OVCAR-8
# PC-3 = tested on: PC-3
# RPMI-8226 = tested on: RPMI-8226
# RXF 393 = tested on: RXF 393
# SF-268 = tested on: SF-268
# SF-295 = tested on: SF-295
# SF-539 = tested on: SF-539
# SK-MEL-28 = tested on: SK-MEL-28
# SK-MEL-2 = tested on: SK-MEL-2
# SK-MEL-5 = tested on: SK-MEL-5
# SK-OV-3 = tested on: SK-OV-3
# SN12C = tested on: SN12C
# SNB-19 = tested on: SNB-19
# SNB-75 = tested on: SNB-75
# SR = tested on: SR
# SW-620 = tested on: SW-620
# T47D = tested on: T47D
# TK-10 = tested on: TK-10
# U-251 = tested on: U-251
# UACC-257 = tested on: UACC-257
# UACC-62 = tested on: UACC-62
# UO-31 = tested on: UO-31
smiles,measurement,setting,value
O=C(O)C(=Cc1ccc(-c2ccccc2)cc1)C(=O)O,GI50,786-0,14.8 µM (inactive)
same,GI50,A498,19.3 µM (inactive)
same,GI50,A549,18 µM (inactive)
same,GI50,ACHN,18.6 µM (inactive)
same,GI50,BT-549,8.79 µM (inactive)
same,GI50,CAKI-1,14.5 µM (inactive)
same,GI50,CCRF-CEM,4.06 µM (inactive)
same,GI50,COLO 205,11.2 µM (inactive)
same,GI50,DU-145,3.66 µM (inactive)
same,GI50,EKVX,> 100 µM (inactive)
same,GI50,HCC 2998,8.73 µM (inactive)
same,GI50,HCT-116,10.4 µM (inactive)
same,GI50,HCT-15,12.2 µM
same,GI50,HL-60,7.53 µM (inactive)
same,GI50,HOP-62,6.75 µM (inactive)
same,GI50,HOP-92,23.8 µM (inactive)
same,GI50,HT-29,> 25.8 µM (inactive)
same,GI50,Hs-578T,24.4 µM (inactive)
same,GI50,IGROV-1,23.3 µM (inactive)
same,GI50,K562,5.7 µM (inactive)
same,GI50,KM12,15.6 µM (inactive)
same,GI50,LOX IMVI,9.75 µM (inactive)
same,GI50,M14,12.4 µM (inactive)
same,GI50,MCF7,11.5 µM (inactive)
same,GI50,MDA-MB-231,14.9 µM (inactive)
same,GI50,MDA-MB-435,9.16 µM (inactive)
same,GI50,MDA-N,19.1 µM (inactive)
same,GI50,MOLT-4,15.8 µM (inactive)
same,GI50,Malme-3M,14.7 µM (inactive)
same,GI50,NCI-H226,22 µM (inactive)
same,GI50,NCI-H23,6.87 µM (inactive)
same,GI50,NCI-H460,14.9 µM (inactive)
same,GI50,NCI-H522,6.82 µM (inactive)
same,GI50,NCI/ADR-RES,13.2 µM (inactive)
same,GI50,OVCAR-3,5.53 µM (inactive)
same,GI50,OVCAR-4,15.1 µM (inactive)
same,GI50,OVCAR-5,> 39.5 µM (inactive)
same,GI50,OVCAR-8,16.6 µM (inactive)
same,GI50,PC-3,9.08 µM (inactive)
same,GI50,RPMI-8226,4.26 µM (inactive)
same,GI50,RXF 393,4.02 µM (inactive)
same,GI50,SF-268,14.5 µM (inactive)
same,GI50,SF-295,18.6 µM (inactive)
same,GI50,SF-539,4.78 µM (inactive)
same,GI50,SK-MEL-28,15.8 µM (inactive)
same,GI50,SK-MEL-2,6.95 µM (inactive)
same,GI50,SK-MEL-5,11 µM (inactive)
same,GI50,SK-OV-3,12.6 µM (inactive)
same,GI50,SN12C,11.5 µM (inactive)
same,GI50,SNB-19,13.6 µM (inactive)
same,GI50,SNB-75,10.6 µM (inactive)
same,GI50,SR,1.49 µM (inactive)
same,GI50,SW-620,11.3 µM (inactive)
same,GI50,T47D,11 µM (inactive)
same,GI50,TK-10,13.8 µM (inactive)
same,GI50,U-251,12.5 µM (inactive)
same,GI50,UACC-257,11.1 µM (inactive)
same,GI50,UACC-62,12.3 µM (inactive)
same,GI50,UO-31,12.4 µM (inactive)
CN(C)c1ccc(/C=C2\C[C@H]3[C@@H]4CCc5cc(OCCN6CCCC6)ccc5[C@H]4CC[C@]3(C)[C@H]2O)cc1,GI50,786-0,2.13 µM (inactive)
same,GI50,A498,17.8 µM (inactive)
same,GI50,A549,6.32 µM (inactive)
same,GI50,ACHN,18.1 µM (inactive)
same,GI50,BT-549,16 µM (inactive)
same,GI50,CAKI-1,13.9 µM (inactive)
same,GI50,CCRF-CEM,2.46 µM (inactive)
same,GI50,COLO 205,13.5 µM (inactive)
same,GI50,DU-145,13.1 µM (inactive)
same,GI50,EKVX,15 µM (inactive)
same,GI50,HCC 2998,5.7 µM (inactive)
same,GI50,HCT-116,2.71 µM (inactive)
same,GI50,HCT-15,5.3 µM
same,GI50,HL-60,18.9 µM (inactive)
same,GI50,HOP-62,15.1 µM (inactive)
same,GI50,HOP-92,6.07 µM (inactive)
same,GI50,HT-29,3.57 µM (inactive)
same,GI50,Hs-578T,21.8 µM (inactive)
same,GI50,IGROV-1,16.1 µM (inactive)
same,GI50,K562,4.74 µM (inactive)
same,GI50,KM12,5.71 µM (inactive)
same,GI50,LOX IMVI,7.08 µM (inactive)
same,GI50,M14,4.27 µM (inactive)
same,GI50,MCF7,7.35 µM (inactive)
same,GI50,MDA-MB-231,7.14 µM (inactive)
same,GI50,MDA-MB-435,8.43 µM (inactive)
same,GI50,MDA-N,14.8 µM (inactive)
same,GI50,MOLT-4,9.48 µM (inactive)
same,GI50,Malme-3M,11.5 µM (inactive)
same,GI50,NCI-H226,18.7 µM (inactive)
same,GI50,NCI-H23,15.1 µM (inactive)
same,GI50,NCI-H460,8.07 µM (inactive)
same,GI50,NCI-H522,4.26 µM (inactive)
same,GI50,NCI/ADR-RES,19.3 µM (inactive)
same,GI50,OVCAR-3,14.6 µM (inactive)
same,GI50,OVCAR-4,16.3 µM (inactive)
same,GI50,OVCAR-5,14.7 µM (inactive)
same,GI50,OVCAR-8,6.32 µM (inactive)
same,GI50,PC-3,13.8 µM (inactive)
same,GI50,RPMI-8226,8.28 µM (inactive)
same,GI50,RXF 393,13.7 µM (inactive)
same,GI50,SF-268,21.9 µM (inactive)
same,GI50,SF-295,13.1 µM (inactive)
same,GI50,SF-539,8.32 µM (inactive)
same,GI50,SK-MEL-28,5.11 µM (inactive)
same,GI50,SK-MEL-2,19.3 µM (inactive)
same,GI50,SK-MEL-5,9.66 µM (inactive)
same,GI50,SK-OV-3,16.6 µM (inactive)
same,GI50,SN12C,16.9 µM (inactive)
same,GI50,SNB-19,18.7 µM (inactive)
same,GI50,SNB-75,13.8 µM (inactive)
same,GI50,SR,3.29 µM (inactive)
same,GI50,SW-620,6.53 µM (inactive)
same,GI50,T47D,23.3 µM (inactive)
same,GI50,TK-10,5.5 µM (inactive)
same,GI50,U-251,3.75 µM (inactive)
same,GI50,UACC-257,6.11 µM (inactive)
same,GI50,UACC-62,20 µM (inactive)
same,GI50,UO-31,5.65 µM (inactive)
CC(C)=CCC[C@@H](C)C1=C(O)C(=O)C(C)=C(N[C@H](C)c2ccccc2)C1=O,GI50,786-0,3.66 µM (inactive)
same,GI50,A498,3.91 µM (inactive)
same,GI50,A549,3.28 µM (inactive)
same,GI50,ACHN,3.72 µM (inactive)
same,GI50,BT-549,7.16 µM (inactive)
same,GI50,CAKI-1,4.11 µM (inactive)
same,GI50,CCRF-CEM,0.923 µM (active)
same,GI50,COLO 205,4.33 µM (inactive)
same,GI50,DU-145,6.53 µM (inactive)
same,GI50,EKVX,5.08 µM (inactive)
same,GI50,HCC 2998,11.7 µM (inactive)
same,GI50,HCT-116,4.66 µM (inactive)
same,GI50,HCT-15,2.67 µM
same,GI50,HL-60,2.21 µM (inactive)
same,GI50,HOP-62,2.92 µM (inactive)
same,GI50,HOP-92,6.14 µM (inactive)
same,GI50,HT-29,3.78 µM (inactive)
same,GI50,Hs-578T,6.12 µM (inactive)
same,GI50,IGROV-1,3.8 µM (inactive)
same,GI50,K562,6.64 µM (inactive)
same,GI50,KM12,6.3 µM (inactive)
same,GI50,LOX IMVI,4.53 µM (inactive)
same,GI50,M14,5.41 µM (inactive)
same,GI50,MCF7,3.64 µM (inactive)
same,GI50,MDA-MB-231,7.35 µM (inactive)
same,GI50,MDA-MB-435,7.1 µM (inactive)
same,GI50,MDA-N,7.23 µM (inactive)
same,GI50,MOLT-4,2.54 µM (inactive)
same,GI50,Malme-3M,3.24 µM (inactive)
same,GI50,NCI-H226,4.27 µM (inactive)
same,GI50,NCI-H23,4.38 µM (inactive)
same,GI50,NCI-H460,2.75 µM (inactive)
same,GI50,NCI-H522,3.2 µM (inactive)
same,GI50,NCI/ADR-RES,1.3 µM (inactive)
same,GI50,OVCAR-3,5.36 µM (inactive)
same,GI50,OVCAR-4,5.75 µM (inactive)
same,GI50,OVCAR-5,16.3 µM (inactive)
same,GI50,OVCAR-8,2.58 µM (inactive)
same,GI50,PC-3,10.9 µM (inactive)
same,GI50,RPMI-8226,6.31 µM (inactive)
same,GI50,RXF 393,6.71 µM (inactive)
same,GI50,SF-268,7.01 µM (inactive)
same,GI50,SF-295,3.86 µM (inactive)
same,GI50,SF-539,3.11 µM (inactive)
same,GI50,SK-MEL-28,6.76 µM (inactive)
same,GI50,SK-MEL-2,10.2 µM (inactive)
same,GI50,SK-MEL-5,3.08 µM (inactive)
same,GI50,SK-OV-3,3.84 µM (inactive)
same,GI50,SN12C,6.55 µM (inactive)
same,GI50,SNB-19,6.07 µM (inactive)
same,GI50,SNB-75,2.53 µM (inactive)
same,GI50,SR,22.3 µM (inactive)
same,GI50,SW-620,5.92 µM (inactive)
same,GI50,T47D,4.31 µM (inactive)
same,GI50,TK-10,8.17 µM (inactive)
same,GI50,U-251,5.51 µM (inactive)
same,GI50,UACC-257,8.36 µM (inactive)
same,GI50,UACC-62,2.81 µM (inactive)
same,GI50,UO-31,4.27 µM (inactive)
